Laboratory results taken from patent US11306078B2, “Piperidine CXCR7 receptor modulators” (IDORSIA PHARMACEUTICALS LTD., priority 2016, dated 2022).

Target: human chemokine receptor CXCR7 (Homo sapiens (Human), UniProt P25106)
Assay: Tango CXCR7-bla U2OS beta-arrestin recruitment assay (beta-lactamase reporter, FRET), antagonism of CXCL12/SDF1-α;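 further: compounds preincubated 15 min before CXCL12 addition, then 22 h at 37 °C, FRET emission ratio read with CCF4-AM substrate after 2 h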
Assay type: cell-based
Settings: antagonistic effect on CXCR7; Tango CXCR7-bla U2OS cells, CXCL12/SDF1-α at its EC80

Sequence of human chemokine receptor CXCR7 (P25106 whole entry): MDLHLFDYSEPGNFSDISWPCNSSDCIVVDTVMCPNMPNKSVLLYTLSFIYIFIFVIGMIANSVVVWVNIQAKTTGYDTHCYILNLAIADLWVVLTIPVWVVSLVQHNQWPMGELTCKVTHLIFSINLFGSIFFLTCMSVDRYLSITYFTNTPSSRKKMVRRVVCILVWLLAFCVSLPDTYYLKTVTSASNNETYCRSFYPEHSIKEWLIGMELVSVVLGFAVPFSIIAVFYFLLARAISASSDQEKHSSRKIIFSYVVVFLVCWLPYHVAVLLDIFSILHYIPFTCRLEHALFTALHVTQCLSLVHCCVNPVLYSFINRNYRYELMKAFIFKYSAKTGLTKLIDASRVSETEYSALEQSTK

Row | Structure (SMILES) | IC50 [nM]
1 | C[C@@H](NC(=O)[C@H]1CN(CC2CC2)CC[C@@H]1NC(=O)c1cc(-c2c(F)cc(F)cc2F)on1)c1ccccn1 (single isomer, unassigned) [Example 1.123a, (3S,4S)-1-Cyclopropylmethyl-4-{[5-(2,4,6-trifluoro-phenyl)-isoxazole-3-carbonyl]-amino}-piperidine-3-carboxylic acid ((R)-1-pyridin-2-yl-ethyl)-amide or (3R,4R)-1-Cyclopropylmethyl-4-{[5-(2,4,6-trifluoro-phenyl)-isoxazole-3-carbonyl]-amino}-piperidine-3-carboxylic acid ((R)-1-pyridin-2-yl-ethyl)-amide] | 4
2 | C[C@@H](NC(=O)[C@H]1CN(C2CCCCC2)CC[C@@H]1NC(=O)c1cc(-c2ccc(F)cc2F)no1)c1ccccn1 (single isomer, unassigned) [Example 1.125a, (3S,4S)-1-Cyclohexyl-4-{[3-(2,4-difluoro-phenyl)-isoxazole-5-carbonyl]-amino}-piperidine-3-carboxylic acid ((R)-1-pyridin-2-yl-ethyl)-amide or (3R,4R)-1-Cyclohexyl-4-{[3-(2,4-difluoro-phenyl)-isoxazole-5-carbonyl]-amino}-piperidine-3-carboxylic acid ((R)-1-pyridin-2-yl-ethyl)-amide] | 30
3 | C[C@@H](NC(=O)[C@@H]1CN(C2CCCC2)CC[C@H]1NC(=O)c1cc(-c2c(F)cc(F)cc2F)on1)C1CCC1 (single isomer, unassigned) [Example 1.138a, (3R*,4R*)-1-Cyclopentyl-4-{[5-(2,4,6-trifluoro-phenyl)-isoxazole-3-carbonyl]-amino}-piperidine-3-carboxylic acid ((R)-1-cyclobutyl-ethyl)-amide] | 437
4 | C[C@@H](NC(=O)[C@@H]1CN(C2CCCC2)CC[C@H]1NC(=O)c1cc(-c2c(F)cc(F)cc2F)on1)C1CCC1 (single isomer, unassigned) [Example 1.138b, (3R*,4R*)-1-Cyclopentyl-4-{[5-(2,4,6-trifluoro-phenyl)-isoxazole-3-carbonyl]-amino}-piperidine-3-carboxylic acid ((R)-1-cyclobutyl-ethyl)-amide] | 83
5 | C[C@@H](NC(=O)[C@@H]1CN(CC2CC2)CC[C@H]1NC(=O)c1cc(-c2c(F)cc(F)cc2F)on1)C1CCC1 (single isomer, unassigned) [Example 1.139a, (3R*,4R*)-1-Cyclopropylmethyl-4-{[5-(2,4,6-trifluoro-phenyl)-isoxazole-3-carbonyl]-amino}-piperidine-3-carboxylic acid ((R)-1-cyclobutyl-ethyl)-amide] | 790
6 | C[C@@H](NC(=O)[C@@H]1CN(CC2CC2)CC[C@H]1NC(=O)c1cc(-c2c(F)cc(F)cc2F)on1)C1CCC1 (single isomer, unassigned) [Example 1.139b, (3R*,4R*)-1-Cyclopropylmethyl-4-{[5-(2,4,6-trifluoro-phenyl)-isoxazole-3-carbonyl]-amino}-piperidine-3-carboxylic acid ((R)-1-cyclobutyl-ethyl)-amide] | 29
7 | C[C@@H](NC(=O)[C@H]1CN(CC2CC2)CC[C@@H]1NC(=O)c1cc(-c2ccc(F)cc2F)no1)c1ccccn1 (single isomer, unassigned) [Example 1.154a, (3S,4S)-1-Cyclopropylmethyl-4-{[3-(2,4-difluoro-phenyl)-isoxazole-5-carbonyl]-amino}-piperidine-3-carboxylic acid ((R)-1-pyridin-2-yl-ethyl)-amide or (3R,4R)-1-Cyclopropylmethyl-4-{[3-(2,4-difluoro-phenyl)-isoxazole-5-carbonyl]-amino}-piperidine-3-carboxylic acid ((R)-1-pyridin-2-yl-ethyl)-amide] | 46
8 | C[C@@H](NC(=O)[C@H]1CN(C2CCCCC2)CC[C@@H]1NC(=O)c1noc(-c2ccc(F)cc2F)n1)c1ccccn1 (single isomer, unassigned) [Example 1.156a, (3S,4S)-1-Cyclohexyl-4-{[5-(2,4-difluoro-phenyl)-[1,2,4]oxadiazole-3-carbonyl]-amino}-piperidine-3-carboxylic acid ((R)-1-pyridin-2-yl-ethyl)-amide or (3R,4R)-1-Cyclohexyl-4-{[5-(2,4-difluoro-phenyl)-[1,2,4]oxadiazole-3-carbonyl]-amino}-piperidine-3-carboxylic acid ((R)-1-pyridin-2-yl-ethyl)-amide] | 19
9 | O=C(N[C@H]1CCN(C2CCCC2)C[C@@H]1C(=O)NC1(c2ccccn2)CC1)c1cc(-c2c(F)cc(F)cc2F)on1 (single isomer, unassigned) [Example 1.170a, (3S,4S)-1-Cyclopentyl-4-{[5-(2,4,6-trifluoro-phenyl)-isoxazole-3-carbonyl]-amino}-piperidine-3-carboxylic acid (1-pyridin-2-yl-cyclopropyl)-amide or (3R,4R)-1-Cyclopentyl-4-{[5-(2,4,6-trifluoro-phenyl)-isoxazole-3-carbonyl]-amino}-piperidine-3-carboxylic acid (1-pyridin-2-yl-cyclopropyl)-amide] | 33

The remaining lines, values ahead:

Row | IC50 [nM] | Structure (SMILES)
10 | 647 | C[C@@H](NC(=O)[C@@H]1CN(C2CCCCC2)CC[C@H]1NC(=O)c1cc(-c2c(F)cc(F)cc2F)on1)c1cnccn1 (single isomer, unassigned) [Example 1.129a, (3R*,4R*)-1-Cyclohexyl-4-{[5-(2,4,6-trifluoro-phenyl)-isoxazole-3-carbonyl]-amino}-piperidine-3-carboxylic acid ((R)-1-pyrazin-2-yl-ethyl)-amide]
11 | 35 | C[C@@H](NC(=O)[C@@H]1CN(C2CCCCC2)CC[C@H]1NC(=O)c1cc(-c2c(F)cc(F)cc2F)on1)c1cnccn1 (single isomer, unassigned) [Example 1.129b, (3R*,4R*)-1-Cyclohexyl-4-{[5-(2,4,6-trifluoro-phenyl)-isoxazole-3-carbonyl]-amino}-piperidine-3-carboxylic acid ((R)-1-pyrazin-2-yl-ethyl)-amide]
12 | 43 | O=C(N[C@@H]1CCN(C2CCCCC2)C[C@H]1C(=O)NC1(c2ccccn2)CC1)c1cn(-c2ccc(F)cc2F)nn1 (single isomer, unassigned) [Example 1.165a, (3R*,4R*)-1-Cyclohexyl-4-{[1-(2,4-difluoro-phenyl)-1H-[1,2,3]triazole-4-carbonyl]-amino}-piperidine-3-carboxylic acid (1-pyridin-2-yl-cyclopropyl)-amide]
13 | 537 | O=C(N[C@@H]1CCN(C2CCCCC2)C[C@H]1C(=O)NC1(c2ccccn2)CC1)c1cn(-c2ccc(F)cc2F)nn1 (single isomer, unassigned) [Example 1.165b, (3R*,4R*)-1-Cyclohexyl-4-{[1-(2,4-difluoro-phenyl)-1H-[1,2,3]triazole-4-carbonyl]-amino}-piperidine-3-carboxylic acid (1-pyridin-2-yl-cyclopropyl)-amide]
14 | 7 | O=C(N[C@@H]1CCN(CC2CC2)C[C@H]1C(=O)NC1(c2ccccn2)CC1)c1cc(-c2c(F)cc(F)cc2F)on1 (single isomer, unassigned) [Example 1.171a, (3R*,4R*)-1-Cyclopropylmethyl-4-{[5-(2,4,6-trifluoro-phenyl)-isoxazole-3-carbonyl]-amino}-piperidine-3-carboxylic acid (1-pyridin-2-yl-cyclopropyl)-amide]
